According to patent US9499550B2 (BRISTOL-MYERS SQUIBB COMPANY, priority 2012, dated 2016):
Read-outs that look alike come from different tables or passages of the source.

Tests used:
[1] = test system: HCV genotype 1a (H77 strain) replicon in HUH-7 cells; test: HCV replicon luciferase reporter assay, genotype 1a; format: cell-based; settings: Hepatitis C virus, Huh-7, 72 h, 3 days incubation
Outline: (§1)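 Replicon inhibition for both genotypes was measured as Renilla luciferase signal (EnduRen, 7.5 μM final, 2 h) after 3-day, 37° C exposure of replicon-bearing HUH-7 cells in 4% FCS DMEM, 0.5% DMSO. The 1b construct carries S1179I; the 1a H77 construct carries P1496L and S2204I. Twenty-point, 3-fold dilutions were fitted four-parametrically for EC50, and CC50 was taken from multiplexed Cell Titer-Blue.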

[2] = test system: HCV genotype 1b (Con1) replicon in HUH-7 cells; test: HCV replicon luciferase reporter assay, genotype 1b; format: cell-based; settings: Hepatitis C virus, Huh-7, 72 h, 3 days incubation
Outline: as §1

[3] = GETYPE1A, HCV genotype 1a replicon luciferase, read-out: LE_1a (EC50, range)
[4] = GETYPE1B, HCV genotype 1b replicon luciferase, read-out: LE_1b (EC50, range)
[5] = HCV genotype 1a replicon luciferase assay, range class, read-out: LE_1a (EC50, range)
[6] = HCV genotype 1b replicon luciferase assay, range class, read-out: LE_1b (EC50, range)
[7] = HCV genotype 1a replicon luciferase, read-out: LE_1a (EC50, range)
[8] = HCV genotype 1b replicon luciferase, read-out: LE_1b (EC50, range)

`CCOc1cnc(O[C@@H]2C[C@H]3C(=O)N[C@]4(C(=O)NS(=O)(=O)C5CC5)C[C@H]4/C=C\CC[C@@H](C)C[C@@H](CC)[C@H](NC(=O)OC(C)(C)C(F)(F)F)C(=O)N3C2)c2ccccc12` [Compound 4185] was tested, and the EC50 [1, 3] was less than 5.46 nM and the EC50 [2, 4] was less than 5.46 nM.
For `COc1cnc(O[C@@H]2C[C@H]3C(=O)N[C@]4(C(=O)NS(=O)(=O)C5(CF)CC5)C[C@H]4/C=C\CC[C@H](C)C[C@@H](C)[C@H](NC(=O)OC4(C(F)(F)F)CCOCC4)C(=O)N3C2)c2ccccc12` [Compound 1047, 4-(trifluoromethyl)tetrahydro-2H-pyran-4-yl((2R,6S,7R,9S,13aS,14aR,16aS,Z)-14a-(((1-(fluoromethyl)cyclopropyl)sulfonyl)carbamoyl)-2-((4-methoxyisoquinolin-1-yl)oxy)-7,9-dimethyl-5,16-dioxo-1,2,3,5,6,7,8,9,10,11,13a,14,14a,15,16,16a-hexadecahydrocyclopropa[e]pyrrolo[1,2-a][1,4]diazacyclopentadecin-6-yl)carbamate], the EC50 [1, 5] was 4.82 to 103 nM and the EC50 [2, 6] was 4.82 to 103 nM.
`COc1ccc2c(O[C@@H]3C[C@H]4C(=O)N[C@]5(C(=O)NS(=O)(=O)C6CC6)C[C@H]5/C=C\CC[C@H](C)C[C@@H](C)[C@H](NC(=O)OC(C)(C)C(F)(F)F)C(=O)N4C3)ncc(OC)c2c1` [Compound 4229] showed an EC50 [1, 3] of less than 5.46 nM and an EC50 [2, 4] of less than 5.46 nM.
In the case of `COc1ccc2c(O[C@@H]3C[C@H]4C(=O)N[C@]5(C(=O)NS(=O)(=O)C6CC6)C[C@H]5/C=C\CC[C@@H](C)C[C@@H](C)[C@H](NC(=O)OC(C)(C)C(F)(F)F)C(=O)N4C3)ncnc2c1` [Compound 4034], the EC50 [1, 3] is reported as less than 5.46 nM and the EC50 [2, 4] is reported as less than 5.46 nM.
In the case of `CCCOc1cnc(O[C@@H]2C[C@H]3C(=O)N[C@]4(C(=O)NS(=O)(=O)C5CC5)C[C@H]4/C=C\CC[C@H](C)C[C@@H](C)[C@H](NC(=O)OC(C)(C)C)C(=O)N3C2)c2ccccc12` [Compound 5088, tert-butyl ((2R,6S,7R,9S,13aS,14aR,16aS,Z)-14a-((cyclopropylsulfonyl)carbamoyl)-7,9-dimethyl-5,16-dioxo-2-((4-propoxyisoquinolin-1-yl)oxy)-1,2,3,5,6,7,8,9,10,11,13a,14,14a,15,16,16a-hexadecahydrocyclopropa[e]pyrrolo[1,2-a][1,4]diazacyclopentadecin-6-yl)carbamate], the EC50 ([1]; HCV genotype 1a replicon luciferase, read-out: LE_1a (EC50)) is reported as 103 nM, the EC50 [1, 7] is reported as greater than 87.4 nM and the EC50 ([2]; HCV genotype 1b replicon luciferase, read-out: LE_1b (EC50)) is reported as 20.3 nM. For the same compound, the EC50 [2, 8] was 4.82 to 103 nM.
`COc1ccc2c(O[C@@H]3C[C@H]4C(=O)N[C@]5(C(=O)NS(=O)(=O)C6(CF)CC6)C[C@H]5/C=C\CC[C@H](C)C[C@@H](C)[C@H](NC(=O)OC(C)(C)C(C)(F)F)C(=O)N4C3)ncc(C(F)(F)F)c2c1` [Compound 1166, 3,3-difluoro-2-methylbutan-2-yl((2R,6S,7R,9S,13aS,14aR,16aS,Z)-14a-(((1-(fluoromethyl)cyclopropyl)sulfonyl)carbamoyl)-2-((6-methoxy-4-(trifluoromethyl)isoquinolin-1-yl)oxy)-7,9-dimethyl-5,16-dioxo-1,2,3,5,6,7,8,9,10,11,13a,14,14a,15,16,16a-hexadecahydrocyclopropa[e]pyrrolo[1,2-a][1,4]diazacyclopentadecin-6-yl)carbamate] was tested, and the EC50 [1, 5] was 4.82 to 103 nM and the EC50 [2, 6] was 4.82 to 103 nM.
For `COc1ccc2c(O[C@@H]3C[C@H]4C(=O)N[C@]5(C(=O)NS(=O)(=O)C6(C)CC6)C[C@H]5/C=C\CC[C@H](C)C[C@@H](C)[C@H](NC(=O)OCC5(C)CC5)C(=O)N4C3)nc(-c3ccc(OC(C)C)c(F)c3)cc2c1` [Compound 3067, (1-methylcyclopropyl)methyl ((2R,6S,7R,9S,13aS,14aR,16aS,Z)-2-((3-(3-fluoro-4-isopropoxyphenyl)-6-methoxyisoquinolin-1-yl)oxy)-7,9-dimethyl-14a-(((1-methylcyclopropyl)sulfonyl)carbamoyl)-5,16-dioxo-1,2,3,5,6,7,8,9,10,11,13a,14,14a,15,16,16a-hexadecahydrocyclopropa[e]pyrrolo[1,2-a][1,4]diazacyclopentadecin-6-yl)carbamate], the EC50 [1, 5] was 4.82 to 103 nM and the EC50 [2, 6] was less than 5.46 nM.
`CC[C@@H]1C[C@H](C)CC/C=C\[C@@H]2C[C@@]2(C(=O)NS(=O)(=O)C2(C)CC2)NC(=O)[C@@H]2C[C@@H](Oc3nccc4cc(OC)c(F)cc34)CN2C(=O)[C@H]1NC(=O)C(C)(C)C(F)(F)F` [Compound 4332, (2R,6S,7R,9R,13aS,14aR,16aS,Z)-7-ethyl-2-((7-fluoro-6-methoxyisoquinolin-1-yl)oxy)-9-methyl-N-((1-methylcyclopropyl)sulfonyl)-5,16-dioxo-6-(3,3,3-trifluoro-2,2-dimethylpropanamido)-1,2,3,5,6,7,8,9,10,11,13a,14,14a,15,16,16a-hexadecahydrocyclopropa[e]pyrrolo[1,2-a][1,4]diazacyclopentadecine-14a-carboxamide] showed an EC50 [1, 7] of 1.01 to 5 nM and an EC50 [2, 8] of 1.01 to 5 nM.
With `CCC(C)(CC)OC(=O)N[C@@H]1C(=O)N2C[C@H](Oc3nccc4c5c(ccc34)OCCO5)C[C@H]2C(=O)N[C@]2(C(=O)NS(=O)(=O)C3CC3)C[C@H]2/C=C\CC[C@@H](C)C[C@H]1C` [Compound 5266, 3-methylpentan-3-yl((2R,6S,7R,9R,13aS,14aR,16aS,Z)-14a-((cyclopropylsulfonyl)carbamoyl)-2-((2,3-dihydro-[1,4]dioxino[2,3-f]isoquinolin-7-yl)oxy)-7,9-dimethyl-5,16-dioxo-1,2,3,5,6,7,8,9,10,11,13a,14,14a,15,16,16a-hexadecahydrocyclopropa[e]pyrrolo[1,2-a][1,4]diazacyclopentadecin-6-yl)carbamate] the EC50 [1, 7] was less than 5.46 nM and the EC50 [2, 8] was less than 5.46 nM.
For `CC[C@@H]1C[C@H](C)CC/C=C\[C@@H]2C[C@@]2(C(=O)NS(=O)(=O)C2(C)CC2)NC(=O)[C@@H]2C[C@@H](Oc3cc(OC)nc4cc(OC)c(F)cc34)CN2C(=O)[C@H]1NC(=O)OC(C)(C)C(C)(F)F` [Compound 1200], the EC50 [1, 3] was 1.01 to 5 nM and the EC50 [2, 4] was 1.01 to 5 nM.
With `CC[C@@H]1C[C@H](C)CC/C=C\[C@@H]2C[C@@]2(C(=O)NS(=O)(=O)C2CC2)NC(=O)[C@@H]2C[C@@H](Oc3cnnc4cc(OC)ccc34)CN2C(=O)[C@H]1NC(=O)OC(C)(C)C` [Compound 4340, tert-butyl ((2R,6S,7R,9R,13aS,14aR,16aS,Z)-14a-((cyclopropylsulfonyl)carbamoyl)-7-ethyl-2-((7-methoxycinnolin-4-yl)oxy)-9-methyl-5,16-dioxo-1,2,3,5,6,7,8,9,10,11,13a,14,14a,15,16,16a-hexadecahydrocyclopropa[e]pyrrolo[1,2-a][1,4]diazacyclopentadecin-6-yl)carbamate] the EC50 [1, 7] was 5.01 to 35 nM and the EC50 [2, 8] was 5.01 to 35 nM.
With `COc1cc2nc(C(F)(F)F)c(OC)nc2cc1O[C@@H]1C[C@H]2C(=O)N[C@]3(C(=O)NS(=O)(=O)C4(C)CC4)C[C@H]3/C=C\CC[C@H](C)C[C@@H](C)[C@H](NC(=O)OC(C)(C)C(F)(F)F)C(=O)N2C1` [Compound 4354] the EC50 [1, 3] was 35 to 620 nM and the EC50 [2, 4] was 35 to 620 nM.
With `CC[C@@H]1C[C@H](C)CC/C=C\[C@@H]2C[C@@]2(C(=O)NS(=O)(=O)C2(C)CC2)NC(=O)[C@@H]2C[C@@H](Oc3nc4cc(OC(C)C)ccc4nc3C(F)(F)F)CN2C(=O)[C@H]1NC(=O)OC(C)(C)C` [Compound 4362, tert-butyl ((2R,6S,7R,9R,13aS,14aR,16aS,Z)-7-ethyl-2-((7-isopropoxy-3-(trifluoromethyl)quinoxalin-2-yl)oxy)-9-methyl-14a-(((1-methylcyclopropyl)sulfonyl)carbamoyl)-5,16-dioxo-1,2,3,5,6,7,8,9,10,11,13a,14,14a,15,16,16a-hexadecahydrocyclopropa[e]pyrrolo[1,2-a][1,4]diazacyclopentadecin-6-yl)carbamate] the EC50 [1, 7] was 1.01 to 5 nM and the EC50 [2, 8] was 0.51 to 1 nM.
In the case of `CCOc1nnc(O[C@@H]2C[C@H]3C(=O)N[C@]4(C(=O)NS(=O)(=O)C5(C)CC5)C[C@H]4/C=C\CC[C@H](C)C[C@@H](CC)[C@H](NC(=O)OC(C)(C)C(C)(F)F)C(=O)N3C2)c2ccccc12` [Compound 5050, 3,3-difluoro-2-methylbutan-2-yl((2R,6S,7R,9S,13aS,14aR,16aS,Z)-2-((4-ethoxyphthalazin-1-yl)oxy)-7-ethyl-9-methyl-14a-(((1-methylcyclopropyl)sulfonyl)carbamoyl)-5,16-dioxo-1,2,3,5,6,7,8,9,10,11,13a,14,14a,15,16,16a-hexadecahydrocyclopropa[e]pyrrolo[1,2-a][1,4]diazacyclopentadecin-6-yl)carbamate], the EC50 [1, 7] is reported as 4.82 to 103 nM and the EC50 [2, 8] is reported as 4.82 to 103 nM.
With `C[C@H]1CC/C=C\[C@@H]2C[C@@]2(C(=O)NS(=O)(=O)C2CC2)NC(=O)[C@@H]2C[C@@H](Oc3nccc4c5c(ccc34)OCCO5)CN2C(=O)[C@@H](NC(=O)O[C@@H]2C[C@@H]3C[C@@H]3C2)[C@H](C)C1` [Compound 5263, (1R,3r,5S)-bicyclo[3.1.0]hexan-3-yl((2R,6S,7R,9S,13aS,14aR,16aS,Z)-14a-((cyclopropylsulfonyl)carbamoyl)-2-((2,3-dihydro-[1,4]dioxino[2,3-f]isoquinolin-7-yl)oxy)-7,9-dimethyl-5,16-dioxo-1,2,3,5,6,7,8,9,10,11,13a,14,14a,15,16,16a-hexadecahydrocyclopropa[e]pyrrolo[1,2-a][1,4]diazacyclopentadecin-6-yl)carbamate] the EC50 [1, 7] was 4.82 to 103 nM and the EC50 [2, 8] was less than 5.46 nM.
